Laboratory results reported in patent US8148391B2 (Cephalon, Inc., priority 2006, dated 2012).
Structures can show the parent of a compound that is named as a salt. Where two headings read alike, the source gives them in different places. Values belong to the compound of their own block, whether it stands above or below them.

What was measured:
[1] = molecular target: T1, baculovirus-expressed ALK (Homo sapiens, UniProt Q9UM73); test: ALK Kinase Assay (ELISA-type, time-resolved fluorescence); format: biochemical
T1 construct: host or cells: baculovirus expression system
How it was run: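 Wells were coated with phospholipase C-γ at 10 μg/mL in Tris-buffered saline. Adding 30 ng/ml enzyme started the reaction, which ran at 37° C for 15 minutes before Eu-N1 PT66 antibody detection. Percent inhibition versus log10 concentration gave IC50 by variable-slope fit.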

[2] = molecular target: T2, c-Met (cytoplasmic domain) (Homo sapiens, UniProt P08581); test: c-Met Kinase Assay (same methods as for ALK, with modifications); format: biochemical
T2 construct: 10 ng/mL c-Met (cytoplasmic domain, Invitrogen Corporation #PV3143); purchased Invitrogen Corporation PV3143
How it was run: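 Steps: coat wells with PLC-γ (10 μg/mL, Tris-buffered saline); add 10 ng/mL c-Met cytoplasmic domain to initiate; incubate 15 min, 37° C; detect phosphoproduct via Eu-N1 PT66 antibody.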

[3] = 1 μM ATP (Km level), 30 ng/ml ALK, 37° C., 15 minutes, read-out: ALK Activity (ALK kinase inhibition, IC50 class)
[4] = 1 μM ATP (Km level), 10 ng/mL c-Met, read-out: cMet Activity (c-Met kinase inhibition, IC50 class)
[5] = ALK kinase inhibition, 1 μM ATP (Km level), read-out: ALK Activity
[6] = c-Met kinase inhibition, 1 μM ATP (Km level), read-out: cMet Activity
[7] = 1 μM ATP (Km level), read-out: ALK Activity (ALK Kinase Inhibition, IC50)
[8] = 1 μM ATP (Km level), read-out: cMet Activity (c-Met Kinase Inhibition, IC50)
[9] = ALK kinase inhibition, 1 μM ATP, read-out: ALK Activity
[10] = c-Met kinase inhibition, 1 μM ATP, read-out: cMet Activity

T1 sequence (Q9UM73 19-1620): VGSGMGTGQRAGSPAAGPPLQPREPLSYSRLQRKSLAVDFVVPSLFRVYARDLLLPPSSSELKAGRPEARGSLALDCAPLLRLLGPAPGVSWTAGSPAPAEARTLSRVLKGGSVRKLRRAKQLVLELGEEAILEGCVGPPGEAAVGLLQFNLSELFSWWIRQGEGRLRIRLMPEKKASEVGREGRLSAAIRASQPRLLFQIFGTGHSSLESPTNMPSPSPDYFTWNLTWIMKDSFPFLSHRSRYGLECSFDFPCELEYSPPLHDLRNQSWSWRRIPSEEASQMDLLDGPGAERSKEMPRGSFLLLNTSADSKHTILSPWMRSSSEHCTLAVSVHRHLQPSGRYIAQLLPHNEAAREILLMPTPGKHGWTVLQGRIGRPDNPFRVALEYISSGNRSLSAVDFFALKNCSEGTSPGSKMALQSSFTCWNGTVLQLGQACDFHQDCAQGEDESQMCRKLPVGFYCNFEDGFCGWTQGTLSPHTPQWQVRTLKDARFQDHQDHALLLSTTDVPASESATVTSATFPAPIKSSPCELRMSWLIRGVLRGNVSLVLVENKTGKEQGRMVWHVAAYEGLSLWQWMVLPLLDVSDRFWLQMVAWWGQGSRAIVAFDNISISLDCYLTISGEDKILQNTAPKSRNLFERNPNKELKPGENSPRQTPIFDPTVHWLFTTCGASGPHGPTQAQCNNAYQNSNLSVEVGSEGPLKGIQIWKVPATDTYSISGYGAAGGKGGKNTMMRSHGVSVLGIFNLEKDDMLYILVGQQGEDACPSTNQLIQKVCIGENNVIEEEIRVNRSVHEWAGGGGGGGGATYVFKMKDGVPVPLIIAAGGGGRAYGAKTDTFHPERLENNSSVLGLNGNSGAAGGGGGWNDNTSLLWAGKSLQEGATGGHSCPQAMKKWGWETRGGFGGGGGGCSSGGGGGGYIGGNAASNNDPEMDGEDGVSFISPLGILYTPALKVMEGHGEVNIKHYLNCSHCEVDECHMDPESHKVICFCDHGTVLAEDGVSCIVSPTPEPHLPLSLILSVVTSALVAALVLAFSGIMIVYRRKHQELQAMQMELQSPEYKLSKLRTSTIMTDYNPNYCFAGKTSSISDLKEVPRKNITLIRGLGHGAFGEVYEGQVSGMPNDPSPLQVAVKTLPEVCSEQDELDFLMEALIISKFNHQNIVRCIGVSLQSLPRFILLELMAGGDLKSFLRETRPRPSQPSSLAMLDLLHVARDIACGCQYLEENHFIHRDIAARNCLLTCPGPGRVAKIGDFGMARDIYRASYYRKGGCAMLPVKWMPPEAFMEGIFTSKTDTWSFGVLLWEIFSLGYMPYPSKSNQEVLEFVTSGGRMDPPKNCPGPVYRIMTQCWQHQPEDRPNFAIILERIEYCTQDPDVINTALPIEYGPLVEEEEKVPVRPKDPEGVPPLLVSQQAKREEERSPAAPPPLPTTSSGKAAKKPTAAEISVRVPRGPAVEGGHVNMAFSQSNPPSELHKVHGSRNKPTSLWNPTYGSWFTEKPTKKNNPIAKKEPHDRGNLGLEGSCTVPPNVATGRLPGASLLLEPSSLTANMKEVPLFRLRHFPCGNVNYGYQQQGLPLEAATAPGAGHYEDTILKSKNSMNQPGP
T2 sequence (P08581 956-1390 limits assumed): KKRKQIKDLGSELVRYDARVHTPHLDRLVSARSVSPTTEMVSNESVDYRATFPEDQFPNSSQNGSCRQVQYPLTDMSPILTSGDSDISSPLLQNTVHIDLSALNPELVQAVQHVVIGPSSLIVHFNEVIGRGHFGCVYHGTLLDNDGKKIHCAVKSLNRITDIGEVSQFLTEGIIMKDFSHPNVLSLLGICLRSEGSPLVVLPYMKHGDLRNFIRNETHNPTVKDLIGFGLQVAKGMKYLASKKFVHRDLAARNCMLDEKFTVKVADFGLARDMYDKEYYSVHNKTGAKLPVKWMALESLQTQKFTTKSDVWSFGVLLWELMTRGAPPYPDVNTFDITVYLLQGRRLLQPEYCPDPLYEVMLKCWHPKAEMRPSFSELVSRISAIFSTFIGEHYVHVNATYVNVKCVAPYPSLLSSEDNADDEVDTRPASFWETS

Compound: COc1cc2c(cc1Nc1ncc(Cl)c(Nc3ccc(C(N)=O)cc3OC)n1)CCN(CCS(C)(=O)=O)CC2 [Example 1161, 4-{5-Chloro-2-[3-(2-methanesulfonyl-ethyl)-8-methoxy-2,3,4,5-tetrahydro-1H-benzo[d]azepin-7-ylamino]-pyrimidin-4-ylamino}-3-methoxy-benzamide]
IC50 [1, 3]: < 100 nM | IC50 [2, 4]: > 10000 nM

Compound: CCN1C(=O)CCCc2ccc(Nc3ncc(Cl)c(Nc4ccc(CC#N)cc4)n3)cc21 [Example 1225, {4-[5-Chloro-2-(1-ethyl-2-oxo-2,3,4,5-tetrahydro-1H-1-benzazepin-8-ylamino)-pyrimidin-4-ylamino]-phenyl}-acetonitrile]
IC50 [1, 3]: 100 to 1000 nM | IC50 [2, 4]: 1000 to 10000 nM

Compound: CC1(C)CCC(=O)Nc2ccc(Nc3ncc(Cl)c(Nc4c(F)cccc4C(=O)NCC#N)n3)cc21 [Example 1044, 2-[5-Chloro-2-(5,5-dimethyl-2-oxo-2,3,4,5-tetrahydro-1H-benzo[b]azepin-7-ylamino)-pyrimidin-4-ylamino]-N-cyanomethyl-3-fluoro-benzamide]
IC50 [1, 3]: < 100 nM | IC50 [2, 4]: < 100 nM

Compound: (1S,2S,3R,4R)-3-{5-Chloro-2-[7-(4-methyl-piperazin-1-yl)-6,7,8,9-tetrahydro-5H-benzocyclohepten-2-ylamino]-pyrimidin-4-ylamino}-bicyclo[2.2.1]hept-5-ene-2-carboxylic acid amide [Example 893]
IC50 [1, 7]: < 100 nM | IC50 [2, 8]: 100 to 1000 nM

Compound: COc1cc2c(cc1Nc1ncc(Cl)c(N[C@H]3[C@@H](C(N)=O)[C@@H]4C=C[C@H]3C4)n1)CCN(CC(C)(F)F)CC2 [Example 782, (1S,2S,3R,4R)-3-{5-Chloro-2-[3-(2,2-difluoro-propyl)-8-methoxy-2,3,4,5-tetrahydro-1H-benzo[d]azepin-7-ylamino]-pyrimidin-4-ylamino}-bicyclo[2.2.1]hept-5-ene-2-carboxylic acid amide]
IC50 [1, 7]: < 100 nM | IC50 [2, 8]: > 10000 nM

Compound: CCN1CC(=O)N(CC)c2cc(Nc3ncc(Cl)c(Nc4ccsc4C(=O)NC)n3)ccc2C1 [Example 1856, 3-[5-Chloro-2-(1,4-diethyl-2-oxo-2,3,4,5-tetrahydro-1H-benzo[e][1,4]diazepin-8-ylamino)-pyrimidin-4-ylamino]-thiophene-2-carboxylic acid methylamide]
IC50 [1, 9]: < 100 nM | IC50 [2, 10]: < 100 nM

Compound: CN1CCNCc2ccc(Nc3ncc(Cl)c(Nc4ccccc4NS(C)(=O)=O)n3)cc21 [Example 471, N-{2-[5-Chloro-2-(1-methyl-2,3,4,5-tetrahydro-1H-benzo[e][1,4]diazepin-8-ylamino)-pyrimidin-4-ylamino]-phenyl}-methanesulfonamide hydrochloride]
IC50 [1, 5]: < 100 nM | IC50 [2, 6]: 1000 to 10000 nM

Compound: CCN1CCN(CC)c2cc(Nc3ncc(Cl)c(Nc4ccccc4OCC#N)n3)ccc2C1 [Example 731, {2-[5-Chloro-2-(1,4-diethyl-2,3,4,5-tetrahydro-1H-benzo[e][1,4]diazepin-8-ylamino)-pyrimidin-4-ylamino]-phenoxy}-acetonitrile]
IC50 [1, 7]: < 100 nM | IC50 [2, 8]: 100 to 1000 nM

Compound: CN1CCN(CC2CC2)Cc2ccc(Nc3ncc(Cl)c(N[C@@H]4CCCC[C@H]4NS(C)(=O)=O)n3)cc21 [Example 479, N-{(1R,2R)-2-[5-Chloro-2-(4-cyclopropylmethyl-1-methyl-2,3,4,5-tetrahydro-1H-benzo[e][1,4]diazepin-8-ylamino)-pyrimidin-4-ylamino]-cyclohexyl}-methanesulfonamide]
IC50 [1, 5]: < 100 nM | IC50 [2, 6]: 1000 to 10000 nM

Compound: CCNC(=O)c1ccccc1Nc1nc(Nc2ccc3c(c2)N(CC)CCN(CC)C3)ncc1Cl [Example 718, 2-[5-Chloro-2-(1,4-diethyl-2,3,4,5-tetrahydro-1H-1,4-benzodiazepin-8-ylamino)-pyrimidin-4-ylamino]-N-ethyl-benzamide]
IC50 [1, 7]: < 100 nM | IC50 [2, 8]: < 100 nM

Compound: COc1cc2c(cc1Nc1ncc(Cl)c(N[C@@H]3CCCC[C@H]3NS(C)(=O)=O)n1)CCN(CCNC(C)=O)CC2 [Example 256, N-(2-{7-[5-Chloro-4-((1R,2R)-2-methanesulfonylamino-cyclohexylamino)-pyrimidin-2-ylamino]-8-methoxy-1,2,4,5-tetrahydro-benzo[d]azepin-3-yl}-ethyl)-acetamide]
IC50 [1, 5]: < 100 nM | IC50 [2, 6]: > 10000 nM

Compound: CC(C)N1CC2CCC(C1)c1cc(Nc3ncc(Cl)c(N[C@@H]4CCCC[C@H]4NS(C)(=O)=O)n3)ccc12 (stereo partly drawn) [Example 296, N-{(1R,2R)-2-[5-Chloro-2-(10-Isopropyl-10-aza-tricyclo[6.3.2.0*2,7*]trideca-2,4,6-trien-4-ylamino)-pyrimidin-4-ylamino]-cyclohexyl}-methanesulfonamide]
IC50 [1, 5]: < 100 nM | IC50 [2, 6]: 100 to 1000 nM

Compound: COc1cc2c(cc1Nc1ncc(Cl)c(Nc3ccc(N4CCOCC4)c(C)c3)n1)CCN(CC(=O)N(C)C)CC2 [Example 796, 2-{7-[5-Chloro-4-(3-methyl-4-morpholin-4-yl-phenylamino)-pyrimidin-2-ylamino]-8-methoxy-1,2,4,5-tetrahydro-benzo[d]azepin-3-yl}-N,N-dimethyl-acetamide]
IC50 [1, 7]: < 100 nM | IC50 [2, 8]: > 10000 nM

Compound: COc1cc(N2CCOCC2)ccc1Nc1nc(Nc2ccc3c(c2)CCN(S(C)(=O)=O)CC3)ncc1Cl [Example 320, 5-Chloro-N*2*-(3-methanesulfonyl-2,3,4,5-tetrahydro-1H-benzo[d]azepin-7-yl]-N*4*-(2-methoxy-4-morpholin-4-yl-phenyl)-pyrimidine-2,4-diamine]
IC50 [1, 5]: < 100 nM | IC50 [2, 6]: 1000 to 10000 nM

Compound: CC(C)N1C(=O)CCCc2cc(Nc3ncc(Cl)c(NC4C5C=CC(C5)C4C(N)=O)n3)ccc21 (stereo not drawn) [Example 669, 3-[5-Chloro-2-(1-isopropyl-2-oxo-2,3,4,5-tetrahydro-1H-benzo[b]azepin-7-ylamino)-pyrimidin-4-ylamino]-bicyclo[2.2.1]hept-5-ene-2-carboxylic acid amide]
IC50 [1, 7]: < 100 nM | IC50 [2, 8]: < 100 nM

Second part, the compound after the results:

IC50 [1, 3]: 100 to 1000 nM | IC50 [2, 4]: 100 to 1000 nM
Compound: COCCN1CCc2ccc(Nc3ncc(Cl)c(Nc4ccccc4C(=O)NCCN(C)C)n3)cc2CC1 [Example 1397, {5-Chloro-2-[3-(2-methoxy-ethyl)-2,3,4,5-tetrahydro-1H-benzo[d]azepin-7-ylamino]-pyrimidin-4-ylamino}-N-(2-dimethylamino-ethyl)-benzamide]

IC50 [1, 3]: 100 to 1000 nM | IC50 [2, 4]: < 100 nM
Compound: C#CCNC(=O)c1cccc(F)c1Nc1nc(Nc2ccc3c(c2)OCCCN3C(=O)OC)ncc1Cl [Example 1430, 3-[5-Chloro-4-(2-fluoro-6-prop-2-ynylcarbamoyl-phenylamino)-pyrimidin-2-ylamino]-7,8-dihydro-6H-5-oxa-9-aza-benzocycloheptene-9-carboxylic acid methyl ester]

IC50 [1, 5]: 100 to 1000 nM | IC50 [2, 6]: > 10000 nM
Compound: COCCN1CCc2ccc(Nc3ncc(Cl)c(NCC(C)(C)NS(C)(=O)=O)n3)cc2CC1 [Example 305, N-(2-{5-Chloro-2-[3-(2-methoxy-ethyl)-2,3,4,5-tetrahydro-1H-benzo[d]azepin-7-ylamino]-pyrimidin-4-ylamino}-1,1-dimethyl-ethyl)-methanesulfonamide]

IC50 [1, 7]: 100 to 1000 nM | IC50 [2, 8]: > 10000 nM
Compound: COc1cc2c(cc1Nc1ncc(Cl)c(Nc3cc(Cl)ccc3OC)n1)CCN(CC(F)F)CC2 [Example 768, 5-Chloro-N*4*-(5-chloro-2-methoxy-phenyl)-N*2*-[3-(2,2-difluoro-ethyl)-8-methoxy-2,3,4,5-tetrahydro-1H-benzo[d]azepin-7-yl]-pyrimidine-2,4-diamine]

IC50 [1, 9]: < 100 nM | IC50 [2, 10]: < 100 nM
Compound: C=CCOc1cccc(F)c1Nc1nc(Nc2ccc3c(c2)CCOC(=O)N3C)ncc1Cl [Example 1780, 2-[4-(2-Allyloxy-6-fluoro-phenylamino)-5-chloro-pyrimidin-2-ylamino]-5-methyl-8,9-dihydro-5H-7-oxa-5-aza-benzocyclohepten-6-one]

IC50 [1, 9]: < 100 nM | IC50 [2, 10]: > 10000 nM
Compound: CCN1CC(=O)Nc2cc(Nc3ncc(Cl)c(N[C@H]4[C@@H](C(N)=O)[C@@H]5C=C[C@H]4C5)n3)c(OC)cc2C1 [Example 1663, (1S,2S,3R,4R)-3-[5-Chloro-2-(4-ethyl-7-methoxy-2-oxo-2,3,4,5-tetrahydro-1H-benzo[e][1,4]diazepin-8-ylamino)-pyrimidin-4-ylamino]-bicyclo-[2.2.1]hept-5-ene-2-carboxylic acid amide]

IC50 [1, 7]: 100 to 1000 nM | IC50 [2, 8]: 100 to 1000 nM
Compound: Cc1ccnc(-c2ccccc2Nc2nc(Nc3ccc4c(c3)CCCC(=O)N4C)ncc2Cl)c1 [Example 1002, 7-{5-Chloro-4-[2-(4-methyl-pyridin-2-yl)-phenylamino]-pyrimidin-2-ylamino}-1-methyl-1,3,4,5-tetrahydro-benzo[b]azepin-2-one]

IC50 [1, 5]: < 100 nM | IC50 [2, 6]: < 100 nM
Compound: CCN1CCc2ccc(Nc3ncc(F)c(Nc4ccccc4C(=O)NC)n3)cc2CC1 [Example 196, 2-[2-(3-Ethyl-2,3,4,5-tetrahydro-1H-benzo[d]azepin-7-ylamino)-5-fluoro-pyrimidin-4-ylamino]-N-methyl-benzamide]

IC50 [1, 7]: < 100 nM | IC50 [2, 8]: 100 to 1000 nM
Compound: CNC(=O)C1C2C=CC(C2)C1Nc1nc(Nc2ccc3c(c2)CCC(O)CC3)ncc1Cl (stereo not drawn) [Example 625, (2-exo-3-exo)-3-[5-Chloro-2-(7-hydroxy-6,7,8,9-tetrahydro-5H-benzocyclohepten-2-ylamino)-pyrimidin-4-ylamino]-bicyclo[2.2.1]hept-5-ene-2-carboxylic acid methylamide]
